Laboratory results published in patent US9522121B2, “Aqueous-core lipid nanocapsules for encapsulating hydrophilic and/or lipophilic molecules” (UNIVERSITE D'ANGERS, priority 2007, dated 2016).

Tests used:
[1] = Encapsulation yield, indirect quantification in external water after centrifugation; type: physicochemical; conditions: for encapsulation yield (plateau): hydrophilic molecule in aqueous core, tp = 2 h, highest monomer (TDI) contents
Description: (i) Hydrophilic materials, eventually, have to be shared out into the w/o nanoemulsions water droplets, and it may be done right from the start included in the water phase of the macro-emulsions preparations. Another higher effective manner consists in injecting a very small volume (no more than 2% (v./v.)) of very concentrated aqueous solution, in the microemulsion maintained at the PIT, after the temperature cycling, and before the isopentane dilution. The droplet injected in the (still) stirred microemulsion, very rapidly integrates the aqueous part of the bicontinuous network. As a result of the oil dilution, the nanoemulsion immediately forms, allowing a very homogeneous dispersion in oil of the injected hydrophilic molecule. Incorporating the hydrophilic species through this original manner, eventually prevents the molecules degradation during processing potentially due to the temperature cycling treatment. The hydrophilic model molecules were chosen with very different molecular weight: The first one is a labile dye, methylene blue (MB), the second is a protein, the bovin serum albumin fluorecein isothiocyanate labeled (BSA-FITC) and the last one is a fluorescent compound, Doxorubicin Chlorhydrate (DOX), which is an anti-cancer drug.
(ii) On the other hand, the lipophilic species were introduced in the oil phase of the nanoemulsion, after the chosen time of polymerization (to maximally prevent the potential interactions with the monomer), and before the stage of isopentane evaporation. Thereby, after the complete isopentane evaporation, the lipophilic added materials will be equally shared onto the droplets enclosed in the residual mineral oil, that is, trapped in the amorphous oil/non-ionic surfactant matrix. It finally appears as a marker of the residual mineral oil location, and determining a significant encapsulation yield should support the proposed multi-functional water/oil structure. […] It is important to note here, that these processes of nanocapsule formulation containing hydrophilic and lipophilic agents can be still considered as only involving a low quantity of energy (often called ‘low-energy’ methods). […]
All the quantifications were performed following an indirect method, after separating the external water to the nanocapsules by centrifugation (30 min, 14500 rpm), it was freeze-dried (RP2V, SGD, Le Coudray Saint-Germer, France) to ensure the destruction of the potentially remaining nanocapsules (and also to prevent their additional light adsorption in the quantification process). Next, the freeze-dried samples are solubilized in dichloromethane (DCM), and the different incorporated molecules except DOX which are present in the external water are simply quantified using a Spectrophotometer UV-visible Uvikon 922 Spectrophotometer (Bio-Tek Koutron instruments, Saint-Quentin-en-Yvelines, France). DOX was quantified using a spectrofluorimeter (Fluoroskan Ascent FL, type 374, Thermo Electron Corporation, Finland). […]
Owing to the real challenge that constitutes the encapsulation of hydrophilic agent into nanocapsules themselves dispersed in aqueous continuous phase, the first result will concern the extent in which the selected hydrophilic species, methylene blue and BSA-FITC, can be encapsulated into such colloids. The molecules incorporation during the nanoemulsion generation step as well as the molecule quantification for determining the encapsulation yield, follow the above-described procedures. […]

NIH/3T3 cells = experiment: Cytotoxicity of particles (P) without active ingredient, cell survival by MTT test; type: cell-based, Mus musculus; design: unit: % of control; conditions: DMSO, control = 100.00
Procedure: The cytotoxicity of particles (P) prepared according to 1.2 hereabove—without any active ingredient encapsulated (hereafter called NCB)—was assessed on NIH/3T3 cells (fibroblasts of mice Mus musculus). The […] were exposed to various particle concentrations, during 4, 24, 48 or 72 hours. The cell survival was determined by the MTT test.

[2] = Doxorubicin release kinetics from particles (P), dialysis against PBS; type: physicochemical; conditions: DOX-loaded particles (P), dialysis 15 kDa membrane, PBS pH 7.4, 37° C.
Procedure: To establish the drug release kinetics (see FIG. 8), 2 mL of freshly prepared suspension containing DOX-loaded particle (P), enclosed into a dialysis 15 kDa membrane (Spectra/Por® Membranes, Fisher Bioblock Scientific, Illkirch, France), were added to 40 mL of phosphate buffered saline (PBS, pH 7.4) from Sigma. The flack was weakly mechanically stirred (125 rpm) in darkness, at 37° C. (in a boiler, Julabo SW22, JULABO Labortechnik GmbH, Seelbach, Germany). Next, 500 μL of release medium were collected at specified time points and the DOX concentrations were determined by spectrofluorimetry, as previously described. This collected volume was systematically replaced by the same volume of fresh PBS for insuring the “sink” experimental conditions.

For `Oc1ccc2ccccc2c1N=Nc1ccc(N=Nc2ccccc2)cc1` [RS, red Soudan III], the encapsulation yield ([1]; lipophilic molecule in oil shell, simultaneously encapsulated with MB, tp 2 hours, no influence of monomer amount) was “around 0.92”.
With “Bovine Serum Albumin-Fluorescein Isothiocyanate labeled [BSA-FITC]” the “encapsulation yield (plateau)” value [1] was “about 0.9”.
With `C[S+](C)[O-]` [DMSO] the “cell survival (MTT test), mean” value (NIH/3T3 cells; 4 H exposure) was 46.75, the “cell survival (MTT test), mean” value (NIH/3T3 cells; 24 H exposure) was 10.22 and the “cell survival (MTT test), mean” value (NIH/3T3 cells; 48 H exposure) was 4.79. The “cell survival (MTT test), mean” value (NIH/3T3 cells; 72 H exposure) was 5.00.
For `CN(C)c1ccc2nc3ccc(=[N+](C)C)cc-3sc2c1` [MB, Methylene Blue], the “encapsulation yield (plateau)” value [1] was “about 0.9”.
In the case of `COc1cccc2c1C(=O)c1c(O)c3c(c(O)c1C2=O)C[C@@](O)(C(=O)CO)C[C@@H]3O[C@H]1C[C@H](N)[C@H](O)[C@H](C)O1` [DOX, Doxorubicin Chlorhydrate], the “yield of encapsulated doxorubicin” value ([1]; in aqueous droplets (no monomer)) is reported as 30%, the “yield of encapsulated doxorubicin” value ([1]; in polymeric nanocapsules (interfacial polymerization with tolylene 2,4-diisocyanate)) is reported as 70% and the “release with time (maximum given by the curve fit)” value [2] is reported as ~100%.
